According to patent US4188378A, “Anticancer and antiviral activity of 9-β-D-arabinofuranosyl-2-fluoroadenine” (The United States of America as represented by the …, priority 1978, dated 1980):
Entries after “also recorded” stand apart in the source; their conditions may differ. Read-outs that look alike come from different tables or passages of the source.

Key:
adenosine deaminase = assay: Deamination by adenosine deaminase in vitro and in vivo; assay type: in vitro ADME
Description: (§1) Inhibition of DNA polymerase is considered to be responsible for the biologic activity of AraA. The levels of F-AraATP attainable in leukemia L1210 cells in mice from the administration of 2-F-AraA are much higher than the level of AraATP atainable in these cells after administration of AraA. As a result of the maintenance of these levels of the inhibitor, F-AraATP, in them, the leukemia cells are effectively destroyed in animals. […] 2-F-AraA was also active against leukemia L1210 when administered by the oral route.
It has been noted that the antitumor activity of the parent compound, 9-β-D-arabinofuranosyladenine (AraA), is enhanced by inhibition of adenosine deaminase and inhibition of DNA synthesis in tumor cells by AraA also is enhanced by concurrent inhibition of adenosine deaminase. […] This observation that 2-fluoroadenosine is not such a substrate for adenosine deaminase led to the synthesis of 9-β-D-arabinofuranosyl-2-fluoroadenine (2-F-AraA). […] The intracellular concentration of 2-F-AraATP in L1210 cells was 45, 156 and 220 nanomoles per 10^9 cells three hours after intraperitoneal treatment with 80, 150 and 400 mg/kg of 2-F-AraA.

Leukemia L1210 = assay: Therapeutic activity against leukemia L1210 implanted i.p. in mice; assay type: in vivo
Description: as §1
^a 10^5 L1210 ascites cells implanted i.p. on day 0.
^b Treatments reported were selected from a range of dose levels from
lethally toxic to apparently nontoxic.
more than 16% (1/6 treated mice) dying without gross evidence of
progressive leukemia (splenomegaly), except those treated orally, in whic
^c i.p. = intraperitoneal; oral = drug administered directly into
^d % ILS = % increase in life span, compared to untreated control;
excluding 60day survivors.
^e Based on median day of death in dying animals only. Figures in
parentheses based on % survivors.
2-F-AraA was given i.p. or orally on the basis of average mouse body weight. Therapeutic activity based on observed increase in median life span of treated animals over untreated controls and on estimates of the number of viable L1210 cells present at the end of treatment is summarized in Table 2.

P388 leukemia = assay: Therapeutic activity against P388 leukemia in mice; assay type: in vivo; conditions: for % increase in median life span: days 1,5,9 after implant of 10^6 cells
Description: (§2) Relative to activity against leukemia and antiviral activity, the following summation was found: Levels of F-AraATP in acid-soluble extracts prepared from L1210 and P388 leukemia cells in mice treated with 2-F-AraA (80 mg/kg) were determined by HPLC. […] Inhibition of DNA synthesis by 2-F-AraA (80 mg/kg) in L1210 and P388 leukemia cells in vivo was pronounced for 7 hours after treatment. […] 2-F-AraA was effective against P388 leukemia; % increase in median life span of mice treated with 80 and 52 mg/kg (q3hrsx8; days 1,5,9 after implant of 10^6 cells) was 170% and 150%.

P388 leukemia cells [1] = assay: F-AraATP levels in P388 leukemia cells of treated mice (HPLC); assay type: in vivo; conditions: 80 mg/kg
Description: as §2

L1210 cells [2] = assay: Macromolecular synthesis in L1210 cells in culture (radiolabel incorporation); assay type: cell-based; conditions: for activity at 1 µg/mL / activity at 3 µg/mL / activity at 10 µg/mL / inhibition at 10 µg/mL: Mus musculus, L1210; for activity at 1 µg/mL: 1.0 μg/ml; for activity at 3 µg/mL: 3.0 μg/ml; for activity at 10 µg/mL: 10.0 μg/ml
Description: ^a Inhibitor was added to L1210 cells growing in culture; radioactive
substrate was added 30 min. later.
hrs after addition of radioactive substrate to culture medium.
^b Incorporation of [C^3 H3 thymidine or [5^3 Huridine
^c Incorporation of [5^3 Huridine into RNA.
^d Incorporation of [4,5^3 HL-leucine into protein.

L1210 cells [3] = assay: DNA synthesis in L1210 cells in vivo; set-up: species or system mice; conditions: 80 mg/kg, for 7 hours after treatment
Description: Protein synthesis was less affected and RNA synthesis was not inhibited under the same experimental conditions.
as §2

P388 leukemia cells [4] = assay: DNA synthesis in P388 leukemia cells in vivo; set-up: species or system mice; conditions: 80 mg/kg, for 7 hours after treatment
Description: as §2

[5] = tested on: Herpes Simplex Virus Type 1; assay: In vitro antiviral activity, Virus Rating; assay type: cell-based
Vaccinia Virus = assay type: cell-based
Human Cytomegalovirus = assay: In vitro antiviral activity, Virus Rating; assay type: cell-based; conditions: average VR adjusted for number of Microtiter wells; VR ≤0.5 no significant activity
Description: (§3) *Virus Rating (VR): A weighted measurement of antiviral activity which
(§4) takes into account the degree of virusspecific cytopathogenic effect
(§5) (cpe)inhibition, toxicity, and virus concentration, as determined by a
(§6) modification of the methods of Ehrlich et al. (Ann. N.Y. Acad. Sci. 140:7
(§7) 1965). In our experience, a VR≥1.0 indicates definite antiviral
(§8) activity; a VR of 0.5-0.9 indicates moderate antiviral activity; and a VR
(§9) ≤0.5 indicates no significant antiviral activity.
(§10) ^+ Average VR adjusted for number of Microtiter wells employed.

[6] = tested on: Parainfluenza Virus Type 3; assay: In vitro antiviral activity, Virus Rating; assay type: cell-based; conditions: average VR adjusted for number of Microtiter wells; VR ≤0.5 no significant activity
Description: as §3, §4, §5, §6, §7, §8, §9, §10

Rhinovirus Type 1A = assay: In vitro antiviral activity, Virus Rating; assay type: cell-based; conditions: average VR adjusted for number of Microtiter wells; VR ≤0.5 no significant activity
Description: as §3, §4, §5, §6, §7, §8, §9, §10

[7] = Expt. 1, 100 mg/kg/dose q3h × 8, days 1,5,9, i.p.
[8] = Expt. 2, 100 mg/kg/dose q6h × 4, days 1,5,9, i.p.
[9] = Expt. 2, 150 mg/kg/dose q3h × 8, days 1,5,9, oral
[10] = Expt. 2, 400 mg/kg/dose q12h × 2, days 1,5,9, i.p.
[11] = second line of the same regimen: 100 mg/kg/dose q3h × 8, days 1,5,9, i.p.
[12] = read-out: DNA synthesis, TdR-3H incorporation, Treated as % of Control
[13] = read-out: DNA synthesis, UR-3H incorporation, Treated as % of Control
[14] = read-out: Protein synthesis, Leu-3H incorporation, Treated as % of Control
[15] = read-out: RNA synthesis, UR-3H incorporation, Treated as % of Control
[16] = same experimental conditions as Table 1
[17] = average VR adjusted for number of Microtiter wells, VR≥1.0 definite activity

Compound: Nc1nc(F)nc2c1ncn2[C@@H]1O[C@H](CO)[C@@H](O)[C@@H]1O [2-F-AraA, 9-β-D-arabinofuranosyl-2-fluoroadenine]
- deamination by adenosine deaminase (adenosine deaminase): not a substrate for adenosine deaminase; also recorded: not deaminated; also recorded: completely resistant to deamination
- increase in life span of animals dying of leukemia (Leukemia L1210; 100 mg/kg i.p. once every three hours on days 1, 5, 9, 10^5 cells, 4 of 6 animals): 123-155%
- animals deemed recovered from the disease (Leukemia L1210; 100 mg/kg i.p. once every three hours on days 1, 5, 9, of 6 animals): two
- therapeutic result compared with the 100 mg/kg q3h regimen (Leukemia L1210; 400 mg/kg twice a day on days 1, 5, 9): Comparable results
- therapeutic activity against L1210 leukemia (Leukemia L1210; 2-F-AraA alone, BDFl mice, 10^5 cells i.p.): reproducible therapeutic activity; also recorded: therapeutically effective
- 60-Day Survivors (Leukemia L1210; [7]): 2/6
- Estimated No. L1210 Cells Surviving Therapy (based on median day of death) (Leukemia L1210; [7]): 4 × 10^4
- Estimated No. L1210 Cells Surviving Therapy (in parentheses, based on % survivors) (Leukemia L1210; [7]): 1.1
- Median % ILS (Leukemia L1210; [7]): 123%
- Median Day of Death (Dying Mice Only), Treated (Leukemia L1210; Expt. 1, 100 mg/kg/dose q3h × 8, days 1,5,9, i.p., control 8.5): 19
- 60-Day Survivors (Leukemia L1210; [8]): 0/6
- Estimated No. L1210 Cells Surviving Therapy (based on median day of death) (Leukemia L1210; [8]): 3 × 10^6
- Median % ILS (Leukemia L1210; [8]): 83%
- Median Day of Death (Dying Mice Only), Treated (Leukemia L1210; Expt. 2, 100 mg/kg/dose q6h × 4, days 1,5,9, i.p., control 9): 16.5
- Estimated No. L1210 Cells Surviving Therapy (based on median day of death) (Leukemia L1210; [9]): 2 × 10^7
- Median % ILS (Leukemia L1210; [9]): 66%
- Median Day of Death (Dying Mice Only), Treated (Leukemia L1210; Expt. 2, 150 mg/kg/dose q3h × 8, days 1,5,9, oral, control 9): 15
- 60-Day Survivors (Leukemia L1210; [10]): 1/6
- Estimated No. L1210 Cells Surviving Therapy (based on median day of death) (Leukemia L1210; [10]): 2 × 10^3
- Estimated No. L1210 Cells Surviving Therapy (in parentheses, based on % survivors) (Leukemia L1210; [10]): 1.8
- Median % ILS (Leukemia L1210; [10]): 144%
- Median Day of Death (Dying Mice Only), Treated (Leukemia L1210; Expt. 2, 400 mg/kg/dose q12h × 2, days 1,5,9, i.p., control 9): 22
- treated mice dying without gross evidence of progressive leukemia (splenomegaly) (Leukemia L1210; i.p. treatments reported in Table 2 (1/6 treated mice)): ≤ 16%
- toxicity over the dose range tested (Leukemia L1210; mice treated orally): no toxic levels
- activity against leukemia L1210 (Leukemia L1210; oral route): some therapeutic activity; also recorded: active
- 60-Day Survivors (Leukemia L1210; [11]): 1/6
- Estimated No. L1210 Cells Surviving Therapy (based on median day of death) (Leukemia L1210; [11]): 5 × 10^2
- Estimated No. L1210 Cells Surviving Therapy (in parentheses, based on % survivors) (Leukemia L1210; [11]): 1.8
- Median % ILS (Leukemia L1210; [11]): 155%
- Median Day of Death (Dying Mice Only), Treated (Leukemia L1210; second line of the same regimen: 100 mg/kg/dose q3h × 8, days 1,5,9, i.p., control 9): 23
- % increase in median life span (P388 leukemia; 52 mg/kg q3hrsx8): 150%
- % increase in median life span (P388 leukemia; 80 mg/kg q3hrsx8): 170%
- activity against P388 leukemia in mice (P388 leukemia; mouse, in vivo): effective; also recorded: active
- level of F-AraATP in acid-soluble extracts (HPLC) (P388 leukemia cells [1]; 1 to 6 hours after treatment): 30-50 nmoles/gm cells
- level of F-AraATP in acid-soluble extracts (HPLC) (P388 leukemia cells [1]; 9 hours after treatment): none was detected
- DNA synthesis in L1210 cells in culture (L1210 cells [2]): inhibited DNA synthesis
- inhibition of RNA synthesis (L1210 cells [2]; 10 μg/ml): generally not inhibited
- activity at 1 µg/mL (L1210 cells [2]; [12]): 102%
- activity at 1 µg/mL (L1210 cells [2]; [13]): 84%
- activity at 1 µg/mL (L1210 cells [2]; [14]): 119%
- activity at 1 µg/mL (L1210 cells [2]; [15]): 135%
- activity at 3 µg/mL (L1210 cells [2]; [12]): 49%
- activity at 3 µg/mL (L1210 cells [2]; [13]): 36%
- activity at 3 µg/mL (L1210 cells [2]; [14]): 86%
- activity at 3 µg/mL (L1210 cells [2]; [15]): 163%
- activity at 10 µg/mL (L1210 cells [2]; [12]): 18%
- activity at 10 µg/mL (L1210 cells [2]; [13]): 11%
- activity at 10 µg/mL (L1210 cells [2]; [14]): 66%
- activity at 10 µg/mL (L1210 cells [2]; [15]): 137%
- inhibition at 10 µg/mL (L1210 cells [2]; 10 μg/ml, read-out: inhibition of DNA synthesis): 90%
- inhibition at 10 µg/mL (L1210 cells [2]; 10 μg/ml, read-out: inhibition of protein synthesis): 30%
- Protein synthesis in L1210 cells in culture (L1210 cells [2]; [16]): less affected
- RNA synthesis in L1210 cells in culture (L1210 cells [2]; [16]): not inhibited
- inhibition of DNA synthesis in vivo (L1210 cells [3]): pronounced
- inhibition of DNA synthesis in vivo (P388 leukemia cells [4]): pronounced
- activity against the virus [5]: demonstrated activity
- Virus Rating (VR) [5, 17]: 1.4
- Virus Rating (VR) (Vaccinia Virus; [17]): 1.3
- activity against the virus (Vaccinia Virus; grown in H.Ep.-2 cells in culture): demonstrated activity
- Virus Rating (VR) (Human Cytomegalovirus): 0.3
- Virus Rating (VR) [6]: 0
- Virus Rating (VR) (Rhinovirus Type 1A): 0
